pKd: −log10 of the molar value. “Also recorded” adds a separate entry of the source.
Assays:
[1] = system: hairpin with a fully paired stem; test: Biolayer interferometry (BLI) binding affinity, fully paired hairpin
Protocol: (§1) The RNA (200 μL aliquots) was then added to a black 96-well plate (Greiner Bio-One). […] A sample with no compound was used as background. All experiments were performed at 30° C. with agitation set to 1000 rpm. The biotinylated RNA (ligand) was loaded onto the surface of streptavidin biosensors (SA) for 660 s. […] Biosensors were then washed in 1× Kinetics Buffer for 300 s followed by association of the compound (analyte) for 5000 s. Finally, dissociation of the ligand-analyte interaction was analyzed for 5000 s. The resulting curves were corrected by subtracting the response recorded on a sensor loaded with ligand (RNA) but incubated with no analyte (compound). Data analyses and curve fitting were completed using Octet Data Analysis, version 7.0. Experimental data were fitted using the 2:1 heterogeneous ligand (HL) curve fit. Global analysis of all data sets acquired for different analyte concentrations, assuming reversible binding, was completed using nonlinear least squares fitting. […] [formula] where [Analyte] is the concentration of compound, Req is the estimated response at equilibrium, kon is association constant, koff is dissociation constant.

r(GGGGCC)66 = test: Identification of cellular RNA targets by 1a-CA-biotin pull-down and qRT-PCR (competitive profiling); assay type: cell-based; conditions: co-treatment with 1a-CA-biotin and compound
r(GGGGCC)8 [2] = test: Optical melting of r(GGGGCC)8 in the presence of small molecule; assay type: binding; conditions: for increase of Tm of r(GGGGCC)8 / stabilization of the RNA (r(GGGGCC)8 stability): 1 μM RNA, 3 μM compound; for increase of Tm of r(GGGGCC)8 / stabilization of the RNA (r(GGGGCC)8 stability) / ΔG / Tm: 100 mM NaCl; for ΔG: 37° C.; for ΔG / ΔH / ΔS / Tm: r(GGGGCC)8 1 uM + compound 3 μM; for ΔH / ΔS: 10 mM Tris HCl pH 7.4, 100 mM NaCl
[3] = system: r(CGG)60-expressing cells; conditions: cited from earlier work
[4] = system: r(CCCCGG)66-expressing cells; test: RAN translation in cells expressing antisense repeats (immunoassay); assay type: cell-based; conditions: 100 μM, 24 h
Protocol: Immunoassay analysis of c9RAN proteins. As an alternative means to measure poly(GP) proteins, Meso Scale Discovery (MSD) electrochemiluminescence detection technology was utilized to establish sandwich immunoassays using polyclonal anti-GP as capture and detection antibodies. […] Poly(GP) proteins were also measured in lysates from cultured cells (10-35 μg of protein per well) prepare as described above, or from RIPA-soluble homogenates from frozen frontal cortical tissues (35 μg of protein per well). Brain homogenates were prepared as previously described (Almeida et al., 2013). In brief, tissue was lysed in cold RIPA buffer and sonicated on ice. Lysates were cleared by centrifugation at 100,000 g for 30 min at 4° C. The supernatant was collected and protein concentration was determined by BCA assay. […] A second MSD sandwich immunoassay was developed for the detection of poly(PR) proteins using polyclonal anti-PR as capture and detection antibodies. To validate specificity of the poly(PR) assay, lysates from cells transfected to express each possible protein RAN translated from the sense or antisense transcripts of the expanded C9ORF72 repeat [GFP-(GA)5, GFP-(GR)5, GFP-(GP)5, GFP-(PA)5, GFP-(PR)5] were assayed, as were lysates from cells expressing ([…]. 2F). Western blot analysis and RNA-FISH of cells expressing antisense repeats. […]

C9ORF72+ iNeurons [5] = test: Poly(GP) and poly(PR) inclusions in iNeurons (immunocytochemistry); assay type: cell-based, human; conditions: 2 or 4 μM, four days
C9ORF72 mRNA = test: qRT-PCR of C9ORF72 mRNA in iNeurons; assay type: cell-based, human; conditions: 4 μM, 4 d; all variants and long form
Protocol: RNA was extracted using the Direct-Zol RNA kit combined with in-column DNase I digestion, as per the manufacturer's instructions (Zymo Research, Irvine, Calif., USA). RNA integrity was obtained using the Agilent 2100 Bioanalyzer (Agilent Technologies, Santa Clara, Calif., USA). cDNA was obtained after reverse transcription polymerase chain reactions (RT-PCR) using approximately 500 ng of RNA with random primers and the High Capacity cDNA Transcription Kit (Applied Biosystems, Foster City, Calif., USA) as per the manufacturer's instructions. […] Relative quantification of C9ORF72 variants was determined using the ΔΔCt method and normalized to GAPDH.

[6] = system: cells expressing (CGG)88 placed in the 5'UTR of GFP; test: Western blot analysis of RAN translation in a FXTAS cell model; assay type: cell-based; conditions: COS7 cells, anti-GFP
Protocol: Western blot analysis of RAN translation in a FXTAS cell model. Studies were completed using a plasmid in which r(CGG)88 is embedded in the 5′ UTR of an open reading frame encoding GFP (Todd et al., 2013). Therefore, RAN products are fused to GFP and can be detected using an anti-GFP antibody (Todd et al., 2013). COS7 cells were grown as monolayers in 96-well plates in growth medium (1× DMEM, 10% FBS, and 1× GlutaMax (Invitrogen)). […] Compound 1a was added to the transfection cocktail, which was then applied to the cells. The transfection cocktail was replaced with growth medium containing 1a approximately 5 h post transfection, and the cells were incubated at 37° C. for 18 h. Cells were lysed in the plate using 100 μl/well of MPER Mammalian Protein Extraction Reagent (Pierce Biotechnology) containing 1 μl of Halt Protease Inhibitor cocktail (Thermo Scientific). Cellular proteins were separated by SDS-PAGE (10% polyacrylamide) and then transferred to a PVDF membrane by wet transfer method. Protein content was analyzed by Western blotting by using anti-GFP (Santa Cruz) or anti-β-actin (Sigma Aldrich) as primary antibodies and anti-IgG-horseradish peroxidase conjugate as the secondary antibody. Chemiluminescent signal was generated by SuperSignal West Pico Chemiluminescent substrate (Thermo Scientific), and the blot was imaged with X-ray film (Phenix Research).

[7] = system: r(CCCCGG)66-expressing cells; test: RNA-FISH of cells expressing antisense repeats; assay type: cell-based
Protocol: Western blot analysis and RNA-FISH of cells expressing antisense repeats. To examine the effect of 1a on RAN translation and foci formation in cells expressing antisense ([NT]) repeats, we utilized a previously described ([NT])66 expression vector (Gendron et al., 2013). Transfection, treatment, Western blotting, and RNA-FISH using a [NT] probe from IDT, were conducted as described above for ([NT])66-expressing cells.

C9ORF72+ iNeurons [8] = test: RNA-FISH of RNA foci in iNeurons; assay type: cell-based, human; conditions: three C9ORF72+ iNeuron lines; 2 μM, four days
Protocol: Qiagen) for 15 min at 37° C., or with DNase I (3 U/ml; Invitrogen) for 30 minutes at room temperature, prior to dehydration. Cells were incubated in hybridization buffer (10% dextran sulfate, 50% formamide, 50 mM sodium phosphate buffer (pH 7), 2×SSC) at 66° C. for 20-60 min. […] Cells were hybridized with probe in a sealed, light-protected chamber for 16 h-24 h at 66° C. The coverslips were subsequently washed with 0.1% Tween-20/2×SSC for 5 min followed by three 10 min stringency washes in 0.1×SSC at 66° C. The cells were stained with Hoechst (Invitrogen), rinsed with DEPC-treated water, dehydrated through 70% and 100% ethanol and air dried. Coverslips were mounted with Prolong Gold antifade reagent (Life Technologies). […] For each of 3 cell lines, 3 fields were randomly selected per condition. For each field, the number of foci-positive nuclei and the total number of nuclei were counted to determine the average percentage of foci-positive cells.

[9] = system: (GGGGCC)66-expressing cells; test: Western blot analysis of c9RAN proteins (RAN translation); assay type: cell-based; conditions: HEK293 cells; 100 μM, 24 h (for compound 3)
r(CGG)12 = test: Biolayer interferometry (BLI) binding affinity, r(CGG)12
Protocol: as §1

r(GGGGCC)8 [10] = test: Biolayer interferometry (BLI) binding affinity, r(GGGGCC)8; conditions: BLI kinetic binding; no additional cation
Protocol: as §1

[11] = system: (GGGGCC)66-expressing cells; test: RNA-FISH of nuclear foci; assay type: cell-based; conditions: compound treatment 24 h
Protocol: RNA fluorescence in situ hybridization (FISH) of ([NT]-expressing cells. […] Cells were hybridized with denatured Cy3-conjugated ([NT])4 probe (2 ng/μl) in hybridization buffer (50% formamide, 10% dextran sulfate, 0.1 mg/mL yeast tRNA, 2×SSC, 50 mM sodium phosphate) overnight at 37° C. Cells were then washed once with 40% formamide/1×SSC for 30 min at 37° C. and twice with DEPC-PBS at room temperature for 5 min, followed by counterstaining with Hoechst 33258 (1 μg/ml, Invitrogen). Immunostained cells were visualized using a Zeiss Axiovert Fluorescence Microscope with apotome module. […] To quantify foci-bearing cells, coverslips mounted on slides were scanned by Aperio ScanScope. Ten fields were randomly selected under 20× magnification. For each field, the number of foci-positive nuclei and the total number of nuclei were counted using MetaMorph software. These counts were used to determine the average percentage of foci-positive cells for each condition.

[12] = system: (GGGGCC)66-expressing cells; test: Poly(GP) MSD immunoassay of cell lysates; assay type: cell-based; conditions: 24 h
Protocol: Western blot analysis of c9RAN proteins. HEK293 cells were cultured in Opti-Mem supplemented with 10% FBS and 1% penicillin/streptomycin. […] Twenty-four hours later, cell pellets were collected. […] Western blotting was performed as previously described (Gendron et al., 2013). […] After centrifugation at 16,000×g for 20 min at 4° C., the supernatant was collected and protein concentration determined by BCA assay. […] Anti-GAPDH (1:10,000, BioDesign) was used to ensure equal loading among wells. Membranes were washed three times for 10 min in TBST and incubated with donkey anti-rabbit or anti-mouse IgG conjugated to horseradish peroxidase (1:5000; […] Protein expression was visualized by enhanced chemiluminescence treatment and exposure to film. Immunoassay analysis of c9RAN proteins. As an alternative means to measure poly(GP) proteins, Meso Scale Discovery (MSD) electrochemiluminescence detection technology was utilized to establish sandwich immunoassays using polyclonal anti-GP as capture and detection antibodies. […] Poly(GP) proteins were also measured in lysates from cultured cells (10-35 μg of protein per well) prepare as described above, or from RIPA-soluble homogenates from frozen frontal cortical tissues (35 μg of protein per well). Brain homogenates were prepared as previously described (Almeida et al., 2013). In brief, tissue was lysed in cold RIPA buffer and sonicated on ice. Lysates were cleared by centrifugation at 100,000 g for 30 min at 4° C. The supernatant was collected and protein concentration was determined by BCA assay.

r(GGGGCC)8 [13] = conditions: cited from earlier work

Cc1c2cc[n+](CCN3CCCCC3)cc2c(C)c2c1[nH]c1ccc(O)cc12 [Compound 1a]
binding to a hairpin with a fully paired stem compared with r(GGGGCC)8 [1]: bind more weakly
amount of r(GGGGCC)66 that forms an adduct with 1a-CA-biotin in the presence of compound (r(GGGGCC)66): significantly depleted
increase of Tm of r(GGGGCC)8 (r(GGGGCC)8 [2]): 3.1 °C
stabilization of the RNA (r(GGGGCC)8 stability) (r(GGGGCC)8 [2]): 0.95 kcal/mol
ΔG (r(GGGGCC)8 [2]): -9.93 ± 0.15 kcal/mol
ΔH (r(GGGGCC)8 [2]): -74.4 ± 1.0 kcal/mol
ΔS (r(GGGGCC)8 [2]): -208 ± 3 cal/K · mol
Tm (r(GGGGCC)8 [2]): 84.7 ± 0.2 °C
nuclear foci in r(CGG)60-expressing cells [3]: does reduce nuclear foci
poly(GP) proteins RAN translated from antisense transcripts [4]: no effect
poly(PR) proteins RAN translated from antisense transcripts [4]: no effect
poly(PR) expression (inclusions), synthesized from the antisense transcript (C9ORF72+ iNeurons [5]): no change
percentage of cells with poly(GP) inclusions (RAN translation of poly(GP)) (C9ORF72+ iNeurons [5]; listed as la): significantly decreased; also recorded: dose-dependent decrease
C9ORF72 mRNA levels (C9ORF72 mRNA): no effect
RAN translation in cells expressing (CGG)88 [6]: inhibits RAN translation
downstream canonical translation (GFP) [6]: does not affect
percentage of cells bearing r(CCCCGG) foci [7]: no change
percentage of cells with RNA foci (C9ORF72+ iNeurons [8]): significantly decreased
poly(GA) protein production (RAN translation) [9]: significantly decreased
synthesis of poly(GP) proteins (RAN translation) [9]: significantly decreased
Kd for r(CGG)12 compared with r(GGGGCC)8 (r(CGG)12): similar
pKd (r(GGGGCC)8 [10]): 5.01
percentage of foci-positive cells [11]: significantly decreased
decrease in poly(GP) protein ([12]; 25 μM): 10%
decrease in poly(GP) protein ([12]; 50 μM): 18%
decrease in poly(GP) protein ([12]; 100 μM): 47%

CCN(CC)CCNC(=O)c1cc2cc(NC(=O)c3cc4cc(N)ccc4[nH]3)ccc2[nH]1 [Compound 3]
binding to a hairpin with a fully paired stem compared with r(GGGGCC)8 [1]: bind more weakly
amount of r(GGGGCC)66 that forms an adduct with 1a-CA-biotin in the presence of compound (r(GGGGCC)66): significantly depleted
increase of Tm of r(GGGGCC)8 (r(GGGGCC)8 [2]): did not significantly affect
stabilization of the RNA (r(GGGGCC)8 stability) (r(GGGGCC)8 [2]): did not significantly affect
ΔG (r(GGGGCC)8 [2]): -9.10 ± 0.24 kcal/mol
ΔH (r(GGGGCC)8 [2]): -71.1 ± 1.5 kcal/mol
ΔS (r(GGGGCC)8 [2]): -200 ± 4 cal/K · mol
Tm (r(GGGGCC)8 [2]): 82.2 ± 0.2 °C
poly(GA) protein production (RAN translation) [9]: did not influence
synthesis of poly(GP) proteins (RAN translation) [9]: modestly inhibited
Kd for r(CGG)12 compared with r(GGGGCC)8 (r(CGG)12): similar
pKd (r(GGGGCC)8 [10]): 4.80
percentage of foci-positive cells [11]: not

C[n+]1ccc(-c2c3nc(c(-c4cc[n+](C)cc4)c4ccc([nH]4)c(-c4cc[n+](C)cc4)c4ccc([nH]4)c(-c4cc[n+](C)cc4)c4nc2C=C4)C=C3)cc1 [TMPyP4]
binding to r(GGGGCC)8 in vitro (r(GGGGCC)8 [13]): binds

— patent US10465196B2, “Treatment of C9FTD/ALS by targeting RNA expanded repeat sequences” (THE SCRIPPS RESEARCH INSTITUTE, priority 2014, dated 2019)
